# Assay results from US20230372318A1, “METHODS FOR TREATING A SUBJECT HAVING MULTIPLE SYSTEM ATROPHY” (Theravance Biopharma R&D IP, LLC, priority 2022, published 2023).
# System: subjects with primary autonomic failures (MSA, PD, or PAF) and symptomatic nOH
# Assay: Phase 3 22-week randomized withdrawal study in symptomatic nOH (Example 7)
# Assay type: in vivo, human
# Set-up: OHSA composite score, LS Mean / OHSA composite score, Mean / OHSA composite score, Median / OHSA composite score, LS Mean Difference / OHDAS item 1 (standing for a short time) score, Mean / OHDAS item 1 (standing for a short time) score, Median / OHDAS item 1 (standing for a short time) score, LS Mean / OHDAS item 1 (standing for a short time) score, LS Mean Difference: scale not given here
# Settings: MSA subjects; for OHSA composite score, LS Mean / OHSA composite score, Mean / OHSA composite score, Median / OHSA composite score, LS Mean Difference: change at week 22, end of 6-week double-blind period; for OHSA composite score, LS Mean Difference / OHDAS item 1 (standing for a short time) score, LS Mean Difference: vs placebo; for OHDAS item 1 (standing for a short time) score, LS Mean / OHDAS item 1 (standing for a short time) score, Mean / OHDAS item 1 (standing for a short time) score, Median / OHDAS item 1 (standing for a short time) score, LS Mean Difference: week 22, end of 6-week double-blind period
# Experimental: The study consisted of a 16-week open-label (OL) treatment period with ampreloxetine followed by a 6-week double-blind randomized withdrawal period where subjects were administered either ampreloxetine or placebo.
# Eligible subjects were either (i) completers of the study of Example 6 (“Completers Group”), or (ii) symptomatic nOH subjects meeting all applicable study inclusion criteria and none of the applicable exclusion criteria (“De Novo Group”).
# A 4-week screening period applied to the De Novo Group only and the Screening visit was conducted in clinic for all De Novo Group subjects.
# A total of 203 subjects entered this study (170 subjects from Example 6 (85 from the ampreloxetine group and 85 from the placebo group) and 33 de novo subjects). During the OL period, 55 subjects discontinued treatment. At 16 weeks, 64 subjects were randomized to the ampreloxetine group (6 subjects discontinued the study) and 64 subjects were randomized to the placebo group (3 subjects discontinued the study). A total of 119 subjects completed the study. Of the 128 subjects entering the randomized period, 40 subjects had MSA (31%); 68 subjects had PD (53%); and 20 subjects had PAF (16%) (in each category, the subjects were split equally between ampreloxetine and placebo).
# Beginning on Day 2, subjects received a single dose of 10 mg ampreloxetine once daily (QD) and continued thereafter for the 16-week duration of the OL treatment period. Following this 16-week OL treatment period, subjects were randomized to either continue on the active treatment or placebo (“PBO”) for a period of 6 weeks.
# Subjects enrolled into the OL period of the study had visits scheduled for Day 15, Day 29, and every 4 weeks thereafter for assessments as outlined in the Schedule of Study Procedures. […] Those subjects not meeting this continuation criterion were discontinued and underwent an end of study visit. The end of study visit was completed within 2 weeks from the date of the last dose.
# Following the completion of a total of 16 weeks OL treatment with ampreloxetine (V6), subjects were assessed for randomization in a 1:1 manner. Eligible subjects received 6 weeks of double-blind treatment of ampreloxetine or PBO once daily. Only subjects with OHSA #1 score of ≤7 were eligible for randomization for the double-blind treatment period.
# Exploratory assessments included: orthostatic standing test; NMSS; EQ-5D-5L; HADS; and BSFC-s. For subjects with PD, exploratory assessments included: Unified Parkinson's Disease Rating Scale (UPDRS); and Parkinson's Disease Questionaire-8 (PDQ-8). For subjects with MSA, exploratory assessments included: Unified Multiple System Atrophy Rating Scale (UMSARS); and Composite Autonomic Symptom Score-31 (COMPASS-31).
# The secondary endpoints included: • (a) Change from baseline in OHSA #1 at Week 6 post randomization (V9, D155); • (b) Change from baseline in OHSA composite score at Week 6 post randomization (V9, D155); • (c) Change from baseline in OHDAS composite score at Week 6 post randomization (V9, D155); • (d) Change from baseline in PGI-S at Week 6 post randomization (V9, D155); • (e) Change from baseline in percentage of time spent in standing position as measured by a wearable device at Week 6 post randomization (V9, D155); and • (f) Change from baseline in average number of steps taken as measured by a wearable device at Week 6 post randomization (V9, D155).
structure (smiles),measurement,setting,value
"Fc1cc(F)c(OCc2ccccc2C2CCNCC2)c(F)c1 [Ampreloxetine, 4-[2-(2,4,6-trifluorophenoxymethyl)phenyl]piperidine]","OHSA composite score, LS Mean",<65 Years,0.55
same,"OHSA composite score, Mean",<65 Years,0.8
same,"OHSA composite score, Median",<65 Years,0.4
same,"OHSA composite score, LS Mean Difference",<65 Years,−1.09
same,"OHDAS item 1 (standing for a short time) score, LS Mean",<65 Years,−0.5
same,"OHDAS item 1 (standing for a short time) score, Mean",<65 Years,0.0
same,"OHDAS item 1 (standing for a short time) score, Median",<65 Years,0.0
same,"OHDAS item 1 (standing for a short time) score, LS Mean Difference",<65 Years,−2.9
same,"OHSA composite score, LS Mean",>=65 Years,−0.60
same,"OHSA composite score, Mean",>=65 Years,−0.75
same,"OHSA composite score, Median",>=65 Years,−0.70
same,"OHSA composite score, LS Mean Difference",>=65 Years,−2.17
same,"OHDAS item 1 (standing for a short time) score, LS Mean",>=65 Years,−0.4
same,"OHDAS item 1 (standing for a short time) score, Mean",>=65 Years,−0.3
same,"OHDAS item 1 (standing for a short time) score, Median",>=65 Years,0.0
same,"OHDAS item 1 (standing for a short time) score, LS Mean Difference",>=65 Years,−1.0
same,"OHSA composite score, LS Mean",Female,0.2078
same,"OHSA composite score, Mean",Female,0.23
same,"OHSA composite score, Median",Female,0.00
same,"OHSA composite score, LS Mean Difference",Female,−1.3996
same,"OHDAS item 1 (standing for a short time) score, LS Mean",Female,0.2
same,"OHDAS item 1 (standing for a short time) score, Mean",Female,0.3
same,"OHDAS item 1 (standing for a short time) score, Median",Female,0.0
same,"OHDAS item 1 (standing for a short time) score, LS Mean Difference",Female,−1.0
same,"OHSA composite score, LS Mean",MSA diagnosis <1.3 years,0.73
same,"OHSA composite score, Mean",MSA diagnosis <1.3 years,0.67
same,"OHSA composite score, Median",MSA diagnosis <1.3 years,0.70
same,"OHSA composite score, LS Mean Difference",MSA diagnosis <1.3 years,−1.24
same,"OHDAS item 1 (standing for a short time) score, LS Mean",MSA diagnosis <1.3 years,0.7
same,"OHDAS item 1 (standing for a short time) score, Mean",MSA diagnosis <1.3 years,0.1
same,"OHDAS item 1 (standing for a short time) score, Median",MSA diagnosis <1.3 years,0.0
same,"OHDAS item 1 (standing for a short time) score, LS Mean Difference",MSA diagnosis <1.3 years,−2.7
same,"OHSA composite score, LS Mean",MSA diagnosis >=1.3 years,−0.67
same,"OHSA composite score, Mean",MSA diagnosis >=1.3 years,−0.64
same,"OHSA composite score, Median",MSA diagnosis >=1.3 years,−0.10
same,"OHSA composite score, LS Mean Difference",MSA diagnosis >=1.3 years,−1.78
same,"OHDAS item 1 (standing for a short time) score, LS Mean",MSA diagnosis >=1.3 years,−0.6
same,"OHDAS item 1 (standing for a short time) score, Mean",MSA diagnosis >=1.3 years,−0.4
same,"OHDAS item 1 (standing for a short time) score, Median",MSA diagnosis >=1.3 years,0.0
same,"OHDAS item 1 (standing for a short time) score, LS Mean Difference",MSA diagnosis >=1.3 years,−0.7
same,"OHSA composite score, LS Mean",MSA-C,1.10
same,"OHSA composite score, Mean",MSA-C,0.76
same,"OHSA composite score, Median",MSA-C,0.50
same,"OHSA composite score, LS Mean Difference",MSA-C,−0.68
same,"OHDAS item 1 (standing for a short time) score, LS Mean",MSA-C,0.9
same,"OHDAS item 1 (standing for a short time) score, Mean",MSA-C,0.7
same,"OHDAS item 1 (standing for a short time) score, Median",MSA-C,0.0
same,"OHDAS item 1 (standing for a short time) score, LS Mean Difference",MSA-C,−1.0
same,"OHSA composite score, LS Mean",MSA-P,−0.50
same,"OHSA composite score, Mean",MSA-P,−0.39
same,"OHSA composite score, Median",MSA-P,0.05
same,"OHSA composite score, LS Mean Difference",MSA-P,−1.72
same,"OHDAS item 1 (standing for a short time) score, LS Mean",MSA-P,−1.2
same,"OHDAS item 1 (standing for a short time) score, Mean",MSA-P,−0.7
same,"OHDAS item 1 (standing for a short time) score, Median",MSA-P,0.0
same,"OHDAS item 1 (standing for a short time) score, LS Mean Difference",MSA-P,−2.7
same,"OHSA composite score, LS Mean",Male,−0.3923
same,"OHSA composite score, Mean",Male,−0.46
same,"OHSA composite score, Median",Male,0.20
same,"OHSA composite score, LS Mean Difference",Male,−1.8762
same,"OHDAS item 1 (standing for a short time) score, LS Mean",Male,−1.2
same,"OHDAS item 1 (standing for a short time) score, Mean",Male,−0.8
same,"OHDAS item 1 (standing for a short time) score, Median",Male,0.0
same,"OHDAS item 1 (standing for a short time) score, LS Mean Difference",Male,−2.8
same,"OHSA composite score, Mean",Overall,−0.05
same,"OHSA composite score, Median",Overall,0.05
same,"OHSA composite score, LS Mean","Overall, placebo 1.54, p=0.0056",−0.03
same,"OHSA composite score, LS Mean Difference",Overall,−1.57
same,"OHDAS item 1 (standing for a short time) score, LS Mean",Overall,−0.4
same,"OHDAS item 1 (standing for a short time) score, Mean",Overall,−0.2
same,"OHDAS item 1 (standing for a short time) score, Median",Overall,0.0
same,"OHDAS item 1 (standing for a short time) score, LS Mean Difference",Overall,−2.0
same,"OHSA composite score, LS Mean",Pre treatment baseline OHSA1 <7,−0.22
